Assay results published in patent publication US20060069132A1, “Azolecarboxamide herbicides” (priority 2004, published 2006).

How the values were obtained:
wheat = experiment: Test B postemergence herbicide test; type: in vivo, Triticum aestivum; set-up: key to Wheat plant response rating: 0 = no effect, 100 = complete control
Procedure: (§1) At the same time, plants selected from these crop and weed species and also blackgrass (Alopecurus myosuroides Huds.), wheat (Triticum aestivum L.) and wild oat (Avena fatua L.) were treated with postemergence applications of test chemicals formulated in the same manner. Plants ranged in height from 2 to 18 cm (1- to 4-leaf stage) for postemergence treatments. Plant species in the flooded paddy test consisted of rice (Oryza sativa L.), small flower umbrella sedge (Cyperus difformis L.), ducksalad (Heteranthera limosa (Sw.) Willd.) and barnyardgrass (Echinochloa crus-galli (L.) Beauv.) grown to the 2-leaf stage for testing. Treated plants and controls were maintained in a greenhouse for 13 to 15 days, after which time all species were compared to controls and visually evaluated. Plant response ratings, summarized in Table B, are based on a scale of 0 to 100 where 0 is no effect and 100 is complete control. A dash (-) response means no test result.

rice = experiment: Test B flooded paddy test; type: in vivo, Oryza sativa; conditions: scale 0 to 100 (0 no effect, 100 complete control)
Procedure: as §1

blackgrass = experiment: Test B postemergence herbicide test; type: in vivo, Alopecurus myosuroides
Procedure: as §1

cocklebur = experiment: Test B pre-/postemergence herbicide test; type: in vivo, Xanthium strumarium
Excerpt: (§2) Seeds selected from barnyardgrass (Echinochloa crus-galli (L.) Beauv.), Surinam grass (Urochloa decumbens (Staph) R. D. Webster, previously named Brachiaria decumbens Stapf), cocklebur (Xanthium strumarium L.), corn (Zea mays L.), large crabgrass (Digitaria sanguinalis (L.) Scop.), giant foxtail (Setaria faberi Herim.), lambsquarters (Chenopodium album L.), morningglory (Ipomoea coccinea L.), pigweed (Amaranthus retroflexus L.), rice (Oryza sativa L.) and velvetleaf (Abutilon theophrasti Medik.) were planted and treated preemergence with test chemicals formulated in a non-phytotoxic solvent mixture which included a surfactant.
as §1

giant foxtail = experiment: Test B pre-/postemergence herbicide test; type: in vivo, Setaria faberi
Excerpt: as §2, §1

barnyardgrass [1] = experiment: Test B flooded paddy test; type: in vivo, Echinochloa crus-galli; conditions: scale 0 to 100 (0 no effect, 100 complete control)
Procedure: as §1

ducksalad = experiment: Test B flooded paddy test; type: in vivo, Heteranthera limosa; conditions: 1000 g ai/ha, visual rating, scale 0 to 100 (0 no effect, 100 complete control), 13 to 15 days
Procedure: as §1

large crabgrass = experiment: Test B pre-/postemergence herbicide test; type: in vivo, Digitaria sanguinalis
Excerpt: as §2, §1

pigweed = experiment: Test B pre-/postemergence herbicide test; type: in vivo, Amaranthus retroflexus
Excerpt: as §2, §1

lambsquarters = experiment: Test B pre-/postemergence herbicide test; type: in vivo, Chenopodium album
Excerpt: as §2, §1

wild oat = experiment: Test B postemergence herbicide test; type: in vivo, Avena fatua
Procedure: as §1

morningglory = experiment: Test B pre-/postemergence herbicide test; type: in vivo, Ipomoea coccinea
Excerpt: as §2, §1

velvetleaf = experiment: Test B pre-/postemergence herbicide test; type: in vivo, Abutilon theophrasti
Excerpt: as §2, §1

barnyardgrass [2] = experiment: Test B pre-/postemergence herbicide test; type: in vivo, Echinochloa crus-galli
Excerpt: as §2, §1

corn = experiment: Test B pre-/postemergence herbicide test; type: in vivo, Zea mays
Excerpt: as §2, §1

[3] = tested on: small flower umbrella sedge; experiment: Test B flooded paddy test; type: in vivo, Cyperus difformis; conditions: scale 0 to 100 (0 no effect, 100 complete control)
Procedure: as §1

Surinam grass = experiment: Test B pre-/postemergence herbicide test; type: in vivo, Urochloa decumbens
Excerpt: as §2, §1

[4] = Postemergence, 500 g ai/ha, visual rating after 13 to 15 days, scale 0 (no effect) to 100 (complete control)
[5] = 1000 g ai/ha, visual rating, 13 to 15 days
[6] = Postemergence, 125 g ai/ha, scale 0 (no effect) to 100 (complete control)
[7] = Preemergence, 500 g ai/ha, scale 0 to 100
[8] = preemergence, 125 g ai/ha, 0 to 100 scale, 0 is no effect, 100 is complete control
[9] = 250 g ai/ha, scale 0 to 100, 0 no effect, 100 complete control, preemergence
[10] = Postemergence, 250 g ai/ha, scale 0 (no effect) to 100 (complete control)
[11] = postemergence, 62 g ai/ha, scale 0 to 100
[12] = Postemergence, 500 g ai/ha, scale 0 (no effect) to 100 (complete control)
[13] = postemergence, 125 g ai/ha, scale 0 to 100

In the case of C=Cn1nc(C(C)(C)C)cc1C(=O)Nc1cccc(C(=O)NCC(F)(F)F)c1 [Compound 37], the “Plant response rating, Wheat” value (wheat; [4]) is reported as 20, the “Rice plant response rating” value (rice; [5]) is reported as 50 and the “Blackgrass plant response rating” value (blackgrass; [6]) is reported as 10. For the same compound, the “Plant response rating, Blackgrass” value (blackgrass; [4]) was 10, the “Cocklebur plant response rating” value (cocklebur; [6]) was 60 and the “Plant response rating, Cocklebur” value (cocklebur; [4]) was 80. The “Cocklebur plant response rating” value (cocklebur; [7]) was 0, the “Foxtail, Giant plant response rating” value (giant foxtail; [6]) was 20 and the “Plant response rating, Foxtail, Giant” value (giant foxtail; [4]) was 20. For the same compound, the “Foxtail, Giant plant response rating” value (giant foxtail; [7]) was 60, the “Plant response rating, Foxtail, Giant” value (giant foxtail; [8]) was 20 and the “Barnyardgrass plant response rating” value (barnyardgrass [1]; [5]) was 30. For the same compound, the “Ducksalad plant response rating” value (ducksalad) was 60, the “Crabgrass, Large plant response rating” value (large crabgrass; [6]) was 10 and the “Plant response rating, Crabgrass, Large” value (large crabgrass; [4]) was 20. For the same compound, the “Crabgrass, Large plant response rating” value (large crabgrass; [7]) was 90, the “Plant response rating, Pigweed” value (pigweed; [4]) was 90 and the “Pigweed plant response rating” value (pigweed; [7]) was 100. The “Plant response rating, Pigweed” value (pigweed; [8]) was 80, the “Lambsquarters plant response rating” value (lambsquarters; [6]) was 80 and the “Plant response rating, Lambsquarters” value (lambsquarters; [4]) was 90. For the same compound, the “Lambsquarters plant response rating” value (lambsquarters; [7]) was 100, the “Plant response rating, Lambsquarters” value (lambsquarters; [8]) was 10 and the “Oat, Wild plant response rating” value (wild oat; [6]) was 10. For the same compound, the “Plant response rating, Oat, Wild” value (wild oat; [4]) was 20, the “Morningglory plant response rating” value (morningglory; [7]) was 0 and the “Plant response rating, Morningglory” value (morningglory; [8]) was 0. The “Plant response rating, Velvetleaf” value (velvetleaf; [4]) was 40, the “Velvetleaf plant response rating” value (velvetleaf; [7]) was 20 and the “Plant response rating, Velvetleaf” value (velvetleaf; [8]) was 20. The “Barnyardgrass plant response rating” value (barnyardgrass [2]; [6]) was 20, the “Plant response rating, Barnyardgrass” value (barnyardgrass [2]; [4]) was 20 and the “Barnyardgrass plant response rating” value (barnyardgrass [2]; [7]) was 60. For the same compound, the “Corn plant response rating” value (corn; [7]) was 10, the “Sedge, Umbrella plant response rating” value [3, 5] was 90 and the “Plant response rating, Surinam Grass” value (Surinam grass; [4]) was 20. The “Surinam Grass plant response rating” value (Surinam grass; [7]) was 40 and the “Plant response rating, Surinam Grass” value (Surinam grass; [8]) was 10.

CCOC(=O)c1ccc(F)c(NC(=O)c2cc(C(C)C)nn2CC)c1 [Compound 73] was tested, and the “Wheat plant response rating” value (wheat; [9]) was 20, the “Wheat plant response rating” value (wheat; [10]) was 30 and the “Wheat plant response rating” value (wheat; [11]) was 20. For the same compound, the “Rice plant response rating” value (rice; [5]) was 50, the “Blackgrass plant response rating” value (blackgrass; [10]) was 30 and the “Blackgrass plant response rating” value (blackgrass; [11]) was 30. The “Cocklebur plant response rating” value (cocklebur; [10]) was 20, the “Cocklebur plant response rating” value (cocklebur; [11]) was 20 and the “Foxtail, Giant plant response rating” value (giant foxtail; [10]) was 30. For the same compound, the “Foxtail, Giant plant response rating” value (giant foxtail; [11]) was 10, the “Barnyardgrass plant response rating” value (barnyardgrass [1]; [5]) was 30 and the “Ducksalad plant response rating” value (ducksalad) was 10. For the same compound, the “Crabgrass, Large plant response rating” value (large crabgrass; [10]) was 10, the “Crabgrass, Large plant response rating” value (large crabgrass; [11]) was 0 and the “Pigweed plant response rating” value (pigweed; [10]) was 20. For the same compound, the “Pigweed plant response rating” value (pigweed; [11]) was 10, the “Lambsquarters plant response rating” value (lambsquarters; [10]) was 10 and the “Lambsquarters plant response rating” value (lambsquarters; [11]) was 0. For the same compound, the “Oat, Wild plant response rating” value (wild oat; [10]) was 40, the “Oat, Wild plant response rating” value (wild oat; [11]) was 20 and the “Morningglory plant response rating” value (morningglory; [10]) was 10. The “Morningglory plant response rating” value (morningglory; [11]) was 10, the “Velvetleaf plant response rating” value (velvetleaf; [10]) was 50 and the “Velvetleaf plant response rating” value (velvetleaf; [11]) was 30. For the same compound, the “Barnyardgrass plant response rating” value (barnyardgrass [2]; [10]) was 10, the “Barnyardgrass plant response rating” value (barnyardgrass [2]; [11]) was 0 and the “Corn plant response rating” value (corn; [10]) was 30. The “Corn plant response rating” value (corn; [11]) was 0, the “Sedge, Umbrella plant response rating” value [3, 5] was 80 and the “Surinam Grass plant response rating” value (Surinam grass; [10]) was 10. For the same compound, the “Surinam Grass plant response rating” value (Surinam grass; [11]) was 10.

CCOC(=O)c1ccc(F)c(NC(=O)c2cc(C3CC3)nn2CC)c1 [Compound 74] was tested, and the “Wheat plant response rating” value (wheat; [9]) was 0, the “Wheat plant response rating” value (wheat; [10]) was 20 and the “Wheat plant response rating” value (wheat; [11]) was 20. The “Rice plant response rating” value (rice; [5]) was 0, the “Blackgrass plant response rating” value (blackgrass; [10]) was 50 and the “Blackgrass plant response rating” value (blackgrass; [11]) was 30. The “Cocklebur plant response rating” value (cocklebur; [10]) was 0, the “Cocklebur plant response rating” value (cocklebur; [11]) was 0 and the “Foxtail, Giant plant response rating” value (giant foxtail; [10]) was 10. The “Foxtail, Giant plant response rating” value (giant foxtail; [11]) was 10, the “Barnyardgrass plant response rating” value (barnyardgrass [1]; [5]) was 0 and the “Ducksalad plant response rating” value (ducksalad) was 0. The “Crabgrass, Large plant response rating” value (large crabgrass; [10]) was 10, the “Crabgrass, Large plant response rating” value (large crabgrass; [11]) was 0 and the “Pigweed plant response rating” value (pigweed; [10]) was 20. The “Pigweed plant response rating” value (pigweed; [11]) was 20, the “Lambsquarters plant response rating” value (lambsquarters; [10]) was 10 and the “Lambsquarters plant response rating” value (lambsquarters; [11]) was 0. The “Oat, Wild plant response rating” value (wild oat; [10]) was 40, the “Oat, Wild plant response rating” value (wild oat; [11]) was 30 and the “Morningglory plant response rating” value (morningglory; [10]) was 10. The “Morningglory plant response rating” value (morningglory; [11]) was 0, the “Velvetleaf plant response rating” value (velvetleaf; [10]) was 30 and the “Velvetleaf plant response rating” value (velvetleaf; [11]) was 0. For the same compound, the “Barnyardgrass plant response rating” value (barnyardgrass [2]; [10]) was 0, the “Barnyardgrass plant response rating” value (barnyardgrass [2]; [11]) was 0 and the “Corn plant response rating” value (corn; [10]) was 0. For the same compound, the “Corn plant response rating” value (corn; [11]) was 0, the “Sedge, Umbrella plant response rating” value [3, 5] was 70 and the “Surinam Grass plant response rating” value (Surinam grass; [10]) was 10. For the same compound, the “Surinam Grass plant response rating” value (Surinam grass; [11]) was 0.

CCN(CC)C(=O)c1cccc(NC(=O)c2nn(C(C)(C)C)nc2C)n1 [Compound 440] was tested, and the “Wheat plant response rating” value (wheat; 500 g ai/ha, scale 0 to 100, 0 no effect, 100 complete control, preemergence) was 0, the “Wheat plant response rating” value (wheat; [12]) was 0 and the “Wheat plant response rating” value (wheat; [13]) was 0. The “Rice plant response rating” value (rice; 125 g ai/ha) was 0, the “Blackgrass plant response rating” value (blackgrass; [12]) was 20 and the “Blackgrass plant response rating” value (blackgrass; [13]) was 20. For the same compound, the “Cocklebur plant response rating” value (cocklebur; [12]) was 0, the “Cocklebur plant response rating” value (cocklebur; [13]) was 0 and the “Foxtail, Giant plant response rating” value (giant foxtail; [12]) was 0. The “Foxtail, Giant plant response rating” value (giant foxtail; [13]) was 0, the “Barnyardgrass plant response rating” value (barnyardgrass [1]; 125 g ai/ha) was 0 and the “Crabgrass, Large plant response rating” value (large crabgrass; [12]) was 10. For the same compound, the “Crabgrass, Large plant response rating” value (large crabgrass; [13]) was 0, the “Pigweed plant response rating” value (pigweed; [12]) was 10 and the “Pigweed plant response rating” value (pigweed; [13]) was 0. For the same compound, the “Lambsquarters plant response rating” value (lambsquarters; [12]) was 10, the “Lambsquarters plant response rating” value (lambsquarters; [13]) was 0 and the “Oat, Wild plant response rating” value (wild oat; [12]) was 30. For the same compound, the “Oat, Wild plant response rating” value (wild oat; [13]) was 20, the “Morningglory plant response rating” value (morningglory; [12]) was 20 and the “Morningglory plant response rating” value (morningglory; [13]) was 0. The “Velvetleaf plant response rating” value (velvetleaf; [12]) was 0, the “Velvetleaf plant response rating” value (velvetleaf; [13]) was 0 and the “Barnyardgrass plant response rating” value (barnyardgrass [2]; [6]) was 0. For the same compound, the “Barnyardgrass plant response rating” value (barnyardgrass [2]; [12]) was 0, the “Corn plant response rating” value (corn; [12]) was 20 and the “Corn plant response rating” value (corn; [13]) was 0. The “Sedge, Umbrella plant response rating” value ([3]; 125 g ai/ha) was 0, the “Surinam Grass plant response rating” value (Surinam grass; [12]) was 10 and the “Surinam Grass plant response rating” value (Surinam grass; [13]) was 0.
